In patent publication US6509344B1, “Indenoisoquinolines as antineoplastic agents” (The United States of America as represented by the …, priority 1998, dated 2003):
Like-named read-outs stand apart in the source and are kept apart here.

Tests used:
HOP-62 = test: NCI human cancer cell line screen (COMPARE screening), Lung HOP-62; format: cell-based
Excerpt: (§1) Considering the diversity of cancer in terms of cell type, morphology, growth rate and other cellular characteristics, the U.S. National Cancer Institute (NCI) has developed a “disease-oriented” approach to anticancer activity screening (M. R. Boyd, in “Principle of Practice of Oncology” […]. Rosenberg (Eds.) Vol. 3, PPO Update, No. 10, 1989). This in vitro prescreening system is based on the measurement of anticancer cytotoxicity against human cancer cell line panels consisting of approximately 60 cell lines of major human cancers (including leukemia and slower growing tumor cells such as lung, colon, breast, skin, kidney, etc.) and is referred hereinafter as “COMPARE” screening. An important advantage of the new in vitro screening panels is the opportunity to facilitate identification of compounds that are selectively more cytotoxic to cells of certain types of cancers, thus increasing the ability to select compounds for further study with respect to specific diseases. The indenoisoquinolines were examined for antiproliferative activity against the human cancer cell lines in the National Cancer Institute screen (COMPARE screening), in which the activity of each compound was evaluated with approximately […] different cancer cell lines of diverse tumor origins.

HCT-116 = test: NCI human cancer cell line screen (COMPARE screening), Colon HCT-116; format: cell-based
Excerpt: as §1

SF-539 = test: NCI human cancer cell line screen (COMPARE screening), CNS SF-539; format: cell-based
Excerpt: as §1

UACC-62 = test: NCI human cancer cell line screen (COMPARE screening), Melanoma UACC-62; format: cell-based
Excerpt: as §1

OVCAR-3 = test: NCI human cancer cell line screen (COMPARE screening), Ovarian OVCAR-3; format: cell-based
Excerpt: as §1

SN12C = test: NCI human cancer cell line screen (COMPARE screening), Renal SN12C; format: cell-based
Excerpt: as §1

DU-145 = test: NCI human cancer cell line screen (COMPARE screening), Prostate DU-145; format: cell-based
Excerpt: as §1

MDA-MB-435 = test: NCI human cancer cell line screen (COMPARE screening), Breast MDA-MB-435; format: cell-based
Excerpt: as §1

[1] = test system: approximately 55 different cancer cell lines of diverse tumor origins; test: NCI screen mean graph midpoint over all cell lines tested; format: cell-based, human; details: for IC50: average GI50 for all cell lines tested (approximately 55), values outside test range taken as 10^-8 or 10^-4 molar, read-out: MGM (mean graph midpoint)
Excerpt: as §1

topoisomerase I = molecular target: T1, topoisomerase I (Homo sapiens, UniProt P11387); test: Topoisomerase I-mediated DNA cleavage assay (3'-end-labeled 161 bp pBluescript SK(-) fragment); format: biochemical; details: relative to the activity of 1 μM camptothecin
T1 sequence (P11387 1-765): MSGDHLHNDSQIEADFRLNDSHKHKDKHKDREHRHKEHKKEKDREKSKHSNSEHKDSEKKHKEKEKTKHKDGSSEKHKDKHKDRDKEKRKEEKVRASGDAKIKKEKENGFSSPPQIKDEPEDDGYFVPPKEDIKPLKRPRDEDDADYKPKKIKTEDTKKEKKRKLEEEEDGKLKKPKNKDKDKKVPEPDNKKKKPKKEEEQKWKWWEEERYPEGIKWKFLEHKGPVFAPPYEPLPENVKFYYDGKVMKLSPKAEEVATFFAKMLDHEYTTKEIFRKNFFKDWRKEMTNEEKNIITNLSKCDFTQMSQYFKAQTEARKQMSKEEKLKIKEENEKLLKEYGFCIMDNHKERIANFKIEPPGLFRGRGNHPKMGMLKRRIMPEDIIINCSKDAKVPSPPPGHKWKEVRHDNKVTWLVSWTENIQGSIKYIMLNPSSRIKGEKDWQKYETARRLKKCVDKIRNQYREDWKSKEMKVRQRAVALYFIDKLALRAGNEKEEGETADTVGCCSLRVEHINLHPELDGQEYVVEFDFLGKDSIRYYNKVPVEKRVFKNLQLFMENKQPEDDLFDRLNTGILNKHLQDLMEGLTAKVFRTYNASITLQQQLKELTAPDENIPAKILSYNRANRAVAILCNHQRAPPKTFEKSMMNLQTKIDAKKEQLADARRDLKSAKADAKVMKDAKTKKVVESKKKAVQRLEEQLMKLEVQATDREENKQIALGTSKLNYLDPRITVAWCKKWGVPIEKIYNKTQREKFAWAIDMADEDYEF
Experimental: Topoisomerase I-Mediated DNA Cleavage Reactions Using 3′-End-labeled 161 BP Plasmid DNA
The 161 bp fragment from pBluescript SK(−) phagemid DNA (Stratagene, La Jolla, Calif.) was cleaved with the restriction endonuclease Pvu II and Hind III (New England Biolabs, Beverly, Mass.) in supplied NE buffer 2 (10 μL reactions) for 1 h at 37° C., separated by electrophoresis in a 1% agarose gel made in 1×TBE buffer. The 161 bp fragment was eluted from the gel slice (centrilutor by Amicon) and concentrated in a centricon 50 centrifugal concentrator (Amicon, Beverly, Mass.). Approximately 200 ng of the fragment was 3′-end-labeled at the Hind III site by fill-in reaction with [alpha-^32P]-dCTP and 0.5 mM dATP, dGTP, and dTTP, in React 2 buffer (50 mM Tris-HCl, pH 8.0, […], 50 mM NaCl) with 0.5 units of DNA polymerase I (Klenow fragment). Labeling reactions were followed by phenol-chloroform extraction and ethanol precipitation. The resulting 161 bp 3′-endlabeled DNA fragment was resuspended in water. Aliquots (approximately 50,000 dpm/reaction) were incubated with topoisomerase I at 30° C. for 15 min in the presence of the indicated drug. Reactions were terminated by adding 0.5% SDS. After ethanol precipitation, the samples were resuspended in loading buffer (80% formamide, 10 mM sodium hydroxide, 1 mM sodium EDTA, 0.1% xylene cyanol, and 0.1% bromophenol blue, pH 8.0), and separated in a denaturing gel (16% polyacrylamide, 7 M urea) run at 51° C. The gel was dried and visualized by using a Phosphoimager and ImageQuant software (Molecular Dynamics, Sunnyvale, Calif.).

[2] = Homo sapiens, HOP-62, concentration causing 50% growth inhibition, read-out: Cytotoxicity (G150 in μM) Lung HOP-62
[3] = Homo sapiens, HCT-116, concentration causing 50% growth inhibition, read-out: Cytotoxicity (G150 in μM) Colon HCT-116
[4] = Homo sapiens, SF-539, concentration causing 50% growth inhibition, read-out: Cytotoxicity (G150 in μM) CNS SF-539
[5] = Homo sapiens, UACC-62, concentration causing 50% growth inhibition, read-out: Cytotoxicity (G150 in μM) Melanoma UACC-62
[6] = Homo sapiens, OVCAR-3, concentration causing 50% growth inhibition, read-out: Cytotoxicity (G150 in μM) Ovarian OVCAR-3
[7] = Homo sapiens, SN12C, concentration causing 50% growth inhibition, read-out: Cytotoxicity (G150 in μM) Renal SN12C
[8] = Homo sapiens, DU-145, concentration causing 50% growth inhibition, read-out: Cytotoxicity (G150 in μM) Prostate DU-145
[9] = Homo sapiens, MDA-MB-435, concentration causing 50% growth inhibition, read-out: Cytotoxicity (G150 in μM) Breast MDA-MB-435

SMILES | IC50 (HOP-62; [2]) | IC50 (HCT-116; [3]) | IC50 (SF-539; [4]) | IC50 (UACC-62; [5]) | IC50 (OVCAR-3; [6]) | IC50 (SN12C; [7]) | IC50 (DU-145; [8]) | IC50 (MDA-MB-435; [9]) | IC50 ([1]; Homo sapiens) | Top 1 Cleavage (topoisomerase I) | IC50 (HOP-62) | IC50 (HCT-116) | IC50 (SF-539) | IC50 (UACC-62) | IC50 (OVCAR-3) | IC50 (SN12C) | IC50 (DU-145) | IC50 (MDA-MB-435) | IC50 [1] | cytotoxicity (MGM) relative to lead compound 1 ([1]; comparison in words)
COc1ccc(Cn2c3c(c4cc(OC)c(OC)cc4c2=O)C(=O)c2cc4c(cc2-3)OCO4)cc1 [Compound 13f, 6-(p-Anisyl)-2,3-dimethoxy-5,6-dihydro-5,11-diketo-8,9-methylenedioxy-11H-indeno[1,2-c]isoquinoline] | 20 µM | > 100 µM | > 100 µM | > 100 µM | > 100 µM | > 100 µM | 76 µM | > 100 µM | 70 µM | 0 | – | – | – | – | – | – | – | – | – | –
Cn1c2c(c3ccccc3c1=O)C(=O)c1cc(OCc3ccccc3)c(OCc3ccccc3)cc1-2 [Compound 13g, 8,9-Dibenzyloxy-5,6-dihydro-5,11-diketo-6-methyl-11H-indeno[1,2-c]isoquinoline] | 72 µM | > 100 µM | > 100 µM | 93 µM | > 100 µM | 88 µM | > 100 µM | > 100 µM | 82 µM | 0 | – | – | – | – | – | – | – | – | – | –
COc1cc2c3c(n(C)c(=O)c2cc1OC)-c1cc(OCc2ccccc2)c(OCc2ccccc2)cc1C3=O [Compound 13h, 8,9-Dibenzyloxy-5,6-dihydro-5,11-diketo-6-methyl-2,3-dimethoxy-11H-indeno[1,2-c]isoquinoline] | 46 µM | 80 µM | 39 µM | > 100 µM | 58 µM | > 100 µM | > 100 µM | > 100 µM | 72 µM | 0 | – | – | – | – | – | – | – | – | – | –
COc1cc2c3c(n(C)c(=O)c2cc1OC)-c1cc(OC)c(OC)c(OC)c1C3=O [Compound 13i, 5,6-Dihydro-5,11-diketo-6methyl-2,3,8,9,10-pentamethoxy-11H-indeno[1,c]isoquinoline] | – | – | – | – | – | – | – | – | – | 0 | > 100 µM | > 100 µM | > 100 µM | 55 µM | > 100 µM | > 100 µM | > 100 µM | > 100 µM | 95 µM | –
CC[n+]1cc2cc(OC)c(OC)cc2c2c1-c1cc3c(cc1C2)OCO3 [Compound 27, 6-Ethyl-2,3-dimethoxy-8,9-(methylenedioxy)-11H-indeno[1,2-c]isoquinolinium Chloride] | 22 µM | 13 µM | 5.6 µM | – | 1.9 µM | 2.7 µM | 58 µM | 14 µM | 13 µM | ++ (those compounds having greater than 50% of the activity of 1 μM camptothecin) | – | – | – | – | – | – | – | – | – | lower MGM than the lead compound 1
